Patent publication US10934263B2, “Charged ion channel blockers and methods for use” (Nocion Therapeutics, Inc., priority 2019, dated 2021)

How the values were obtained:
NaV1.7 [1] = biological target: T1, NaV1.7 (Homo sapiens, UniProt Q15858); experiment: Automated patch clamp (Qube 384), internal block of NaV1.7 in HEK293 cells; format: cell-based; settings: compound in internal solution, read-out: Nav1.7 Intracellular Inhibition (IC50)
T1 construct: expressed in transfected cells; tetracycline-inducible, kept under hygromycin and blasticidin
T1 sequence (Q15858 whole entry): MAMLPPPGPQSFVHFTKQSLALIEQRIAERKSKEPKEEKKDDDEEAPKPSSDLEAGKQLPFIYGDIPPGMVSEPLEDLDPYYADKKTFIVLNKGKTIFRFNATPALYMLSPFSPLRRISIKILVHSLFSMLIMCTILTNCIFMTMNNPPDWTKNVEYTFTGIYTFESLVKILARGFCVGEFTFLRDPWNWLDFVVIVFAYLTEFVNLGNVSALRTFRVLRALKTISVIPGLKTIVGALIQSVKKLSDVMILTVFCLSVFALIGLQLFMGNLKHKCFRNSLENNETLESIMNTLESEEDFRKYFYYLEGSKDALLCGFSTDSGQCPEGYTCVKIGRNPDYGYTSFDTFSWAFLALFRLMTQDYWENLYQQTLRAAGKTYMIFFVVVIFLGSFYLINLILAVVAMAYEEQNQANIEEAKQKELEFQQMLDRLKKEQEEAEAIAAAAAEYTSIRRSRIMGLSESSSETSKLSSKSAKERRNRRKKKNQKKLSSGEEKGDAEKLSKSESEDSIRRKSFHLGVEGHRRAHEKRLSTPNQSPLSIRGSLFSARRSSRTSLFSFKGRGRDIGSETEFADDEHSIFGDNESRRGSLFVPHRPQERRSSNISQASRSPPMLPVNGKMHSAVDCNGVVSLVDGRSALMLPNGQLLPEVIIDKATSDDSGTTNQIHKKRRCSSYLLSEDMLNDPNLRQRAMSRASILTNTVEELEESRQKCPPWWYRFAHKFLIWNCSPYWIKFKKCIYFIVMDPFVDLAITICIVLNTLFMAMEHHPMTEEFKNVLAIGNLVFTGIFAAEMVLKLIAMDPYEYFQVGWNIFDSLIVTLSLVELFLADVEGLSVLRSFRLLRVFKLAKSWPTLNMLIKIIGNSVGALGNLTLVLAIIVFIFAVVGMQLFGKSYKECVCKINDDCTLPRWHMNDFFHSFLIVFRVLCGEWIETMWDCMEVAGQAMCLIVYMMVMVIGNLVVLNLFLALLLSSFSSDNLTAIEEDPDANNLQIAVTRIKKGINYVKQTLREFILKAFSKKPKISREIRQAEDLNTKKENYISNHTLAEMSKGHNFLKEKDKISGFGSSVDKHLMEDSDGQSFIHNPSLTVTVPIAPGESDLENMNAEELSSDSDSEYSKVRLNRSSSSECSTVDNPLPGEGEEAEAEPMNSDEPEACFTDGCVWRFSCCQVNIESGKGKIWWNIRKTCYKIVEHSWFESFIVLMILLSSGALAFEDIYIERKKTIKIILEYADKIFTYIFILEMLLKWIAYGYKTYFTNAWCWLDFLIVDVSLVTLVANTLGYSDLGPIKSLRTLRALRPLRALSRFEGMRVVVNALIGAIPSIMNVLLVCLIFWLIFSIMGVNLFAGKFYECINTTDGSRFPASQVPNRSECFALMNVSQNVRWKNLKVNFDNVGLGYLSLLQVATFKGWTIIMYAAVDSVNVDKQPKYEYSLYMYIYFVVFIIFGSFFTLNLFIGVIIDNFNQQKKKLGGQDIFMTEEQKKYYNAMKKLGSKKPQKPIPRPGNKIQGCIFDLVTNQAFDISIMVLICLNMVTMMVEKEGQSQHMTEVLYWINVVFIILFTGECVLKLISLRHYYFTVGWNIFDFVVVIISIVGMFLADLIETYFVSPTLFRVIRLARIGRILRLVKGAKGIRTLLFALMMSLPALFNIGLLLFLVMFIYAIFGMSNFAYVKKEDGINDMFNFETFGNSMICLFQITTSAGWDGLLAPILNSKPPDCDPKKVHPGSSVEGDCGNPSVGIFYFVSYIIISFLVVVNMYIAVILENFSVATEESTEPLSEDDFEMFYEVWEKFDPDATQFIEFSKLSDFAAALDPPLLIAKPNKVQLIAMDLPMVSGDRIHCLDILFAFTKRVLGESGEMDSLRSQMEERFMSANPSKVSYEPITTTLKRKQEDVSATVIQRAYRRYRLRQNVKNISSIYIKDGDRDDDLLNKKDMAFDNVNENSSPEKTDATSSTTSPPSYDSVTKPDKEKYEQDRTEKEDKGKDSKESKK
Method: (§1) NaV1.7 was expressed in HEK293 cells upon induction with tetracycline. Cells were cultured in DMEM containing 10% dialyzed Fetal Bovine Serum (VWR, Radnor, Pa.), 1% Glutamax (VWR, Radnor, Pa.), 1% Penicillin-Streptomycin (VWR, Radnor, Pa.), 100 mg/L Hygromycin (Thermo Fisher Scientific, Waltham, Mass. and 5 mg/L Blasticidin (Alfa Aesar, Haverhill, Mass.). Cells were grown and maintained at 37° C. in a humidified environment containing 10% CO2 in air. Cells were detached from the culture flask for passage and harvested using 0.05% Trypsin-EDTA (Thermo Fisher Scientific, Waltham, Mass.). To induce NaV1.7, cells were induced with tetracycline (0.1-1 μg/mL, IBI Scientific, Peosta, Iowa) the day before recording.
(§2) Before experiments, cells were washed with DPBS (VWR, Radnor, Pa.), digested with Detachin (VWR Radnor, Pa.) and then triturated 10 times in CHO Serum-Free Media (VWR Radnor, Pa.) to resuspend the cells and to break apart cell aggregates. Cells were counted and the final concentration was set at 2-5 million cells per mL.
(§3) The intracellular solution contained the following: 140 mM CsF, 1 mM/5 mM EGTA/CsOH, 10 mM HEPES, 10 mM NaCl, adjusted to pH 7.3 with CsOH, and osmolality to 320 with sucrose. The external solution contained the following: 145 mM NaCl, 4 mM KCl, 1 mM MgCl2, 2 mM CaCl2, 10 mM HEPES, 10 mM Glucose, adjusted to pH 7.4 with CsOH and osmolality to 305 with sucrose. All chemicals are from Sigma-Aldrich, St. Louis, Mo. In order to test the degree of internal block by test compounds, the compounds were dissolved in internal solution at the indicated test concentration. […] In order to test the degree of external block by test compounds the compounds were dissolved in external solution at the indicated test concentration.
(§4) Automated Patch Clamps were performed on Qube 384 (Sophion Bioscience, Woburn Mass.) with multihole Qchips at a temperature setting of 22 degrees. The whole cells configuration was formed with default Qube seal and break-in parameter. The membrane potential was held at −100 mV before the voltage protocol began. Two voltage protocols were followed.
(§5) Step 1: Cells were held at −100 mV with a depolarized pulse to −20 mV for 10 ms, the interval was set at 5 s. Currents were corrected by default leak subtraction from every pulse. The duration was set at 5 mins.
(§6) Step 2: Cells were held at −100 mV with a depolarized pulse to −20 mV for 10 ms. The frequency was 5 Hz. Currents were corrected by leak subtraction calculated before step 2. The duration was set at 4 mins.
After Step 2, the Qchip was removed from the recording chamber. The internal solution was changed with solutions containing test compounds. Qchips were held at −100 mV without pulsing after being replaced in the recording chamber. The total solution switching time was 8 minutes. After the internal solution exchange, Cells were recorded and step 2 for repeated for 10 minutes.
Data analysis was performed by Sophion Analyzer. Cells were filtered with minimum 50 MOhm seal resistance and minimum 5 nA starting current. The rundown of the currents was corrected with control cells (Non-Drug). The remaining was calculated by averaging last 3 points in the end of experiments. The base line was calculated as the average of last 3 points of Step 2. IC50 curves were plotted with DR-plots/Hill function (a dose-response plot with a Hill fit). Data analysis was performed by Sophion Analyzer.

NaV1.7 [2] = biological target: T1, NaV1.7; experiment: Automated patch clamp (Qube 384), external block of NaV1.7 in HEK293 cells; format: cell-based; settings: compound in external solution, read-out: Nav1.7 Extracellular Inhibition (IC50)
Method: as §1, §2, §3, §4, §5, §6
After Step 2, the external solution was changed with solutions containing test compounds. Qchips were held at −100 mV without pulsing. The total solution switching time was 8 minutes. After the external solution exchange, cells were recorded using the same procedure as step 2 for 10 minutes.
Data analysis was performed by Sophion Analyzer. Data were corrected with control cells (Non-Drug). The IC50 data were plotted with DR-plots/Hill function (a dose-response plot with a Hill fit).

[3] = PAMPA membrane permeability assay; format: in vitro ADME; settings: PAMPA permeability coefficient, GIT lipid, buffer pH 7.4, 4 hours incubation
Method: The PAMPA assay (pION, Inc., Woburn Mass.) was used to determine the ability of compounds of the invention to cross an artificial lipid membrane by passive diffusion. Test compounds were dissolved in DMSO (10 mM) and diluted 200-fold in buffer (pION Inc., pH 7.4) to provide 50 uM stock solutions. Buffer (150 μL) was added to a UV blank plate and stock solutions (150 μL) were transferred to a UV reference plate. The blank and reference spectrum were read using a spectrophotometer. Stock solutions (200 μL) were added to the donor plate of the PAMPA sandwich plate and an accept plate painted with GIT lipid (pION Inc, 5 μL) was placed on top. Buffer (200 μL) was added to the acceptor plate and the PAMPA sandwich plate was incubated for 4 hours. Aliquots (150 μL) from the acceptor plate were added to a UV plate and read as acceptor spectrum. Aliquots (150 μL) of the donor solutions were added to a UV analysis plate and read as donor spectrum. The permeability coefficient of test compounds was calculated using PAMPA Explorer™ software (version 3.5.0.4) based on the AUC of the reference plate, the donor plate, and the acceptor plate.

NaV1.7 [4] = biological target: T1, NaV1.7; experiment: Whole cell patch clamp, internal block of NaV1.7 current (compound in internal solution); format: cell-based; settings: % inhibition at 10 μM, compound applied internally, manual patch clamp; read-out: Nav1.7 Intracellular Inhibition
Method: Representative compounds of the invention were synthesized according to the described methods and tested for the ability to inhibit voltage-gated sodium channels.
as §1, with “expressed” for “expressed in HEK293 cells”, “recording and plated onto 24-well plates. Cells were washed with DPBS (VWR, Radnor, Pa.), trypsinized and then triturated five times in 10 mL of growth media to break apart cell aggregates. For one 24-well plate, 2 mL of cell suspension was mixed with 23 mL of fresh growth media and 0.1-1 μg/mL tetracycline added. 1 ml of mixed media with cells was then added to each well of a 24-well plate, with a 12 mm coverslip already placed in the bottom of the well. Cells were then incubated in 37° C. and 10% CO2 overnight.” for “recording.”
The intracellular solution contained the following (in mM) CsCl 135, NaCl 10, EGTA 10, HEPES 10, MgCl2 2, adjusted to pH 7.2 with CsOH. The external solution was a normal Ringer solution containing (in mM) NaCl 155, HEPES 10, glucose 10, KCl 3.5, CaCl2 1.5, MgCl2 1 adjusted to pH 7.4 with NaOH. CsCl is from Alfa Aesar, Haverhill, Mass. All other chemicals are from Sigma-Aldrich, St. Louis, Mo. In order to test the degree of internal block by test compounds the compounds were dissolved in internal solution at the indicated test concentration. […] In order to test the degree of external block by test compounds the compounds were dissolved in external solution at the indicated test concentration.
18-24 hours after cells were induced with tetracycline, coverslips were placed into a chamber filled with Normal Ringer solution at room temperature and the chamber placed on a microscope. Pipettes were pulled from borosilicate glass on a P97 puller (Sutter Instrument, Novato, Calif.) and polished with a MF-830 Microforge (Narishige International USA, Inc, Amityville, N.Y.) to have a resistance of 1.5-2.5 MΩ when filled with CsCl internal solution at room temperature. Healthy cells (those that are round and translucent with no visible blemishes) were chosen for seal formation. A seal was formed between the pipette and the cell, and a brief pulse of suction was used to “break in” and establish the whole-cell configuration. The membrane potential was held at −100 mV before the voltage protocol began. Only cells with series resistance between 1.5-5 MΩ were retained for analysis. The voltage protocol was as follows: Cells were held at −100 mV for 12 ms followed by a hyperpolarizing step to −105 mV for 12 ms to monitor the leak. Cells were then stepped back to −100 mV for 40 ms. Cells were then depolarized to −20 mV for 10 ms and then returned to −100 mV for 26 ms.
Once the recording was started, the voltage protocol was run at 30 second intervals for 5 minutes to get a stable baseline. This was followed by four 30-second periods of 5 Hz stimulation of the same voltage protocol separated by 1 minute of rest which was then followed by 0.33 Hz stimulation after the last train. Currents were recorded using PatchMaster software with Heka EPC10 (HEKA Electronics, Lambrecht, Germany). Only cells with inward current amplitudes at −20 mV between 400 pA and 4 nA were accepted. In addition, cells having leak currents greater than 10% of their current amplitudes were discarded. […]

SMILES	IC50 (NaV1.7 [1]) [µM]	IC50 (NaV1.7 [2]) [µM]	PAMPA (10^−6 cm/s) [3]	inhibition at 10 µM (NaV1.7 [4]) [%]
Cc1cccc(C)c1NC(=O)C[n+]1cc(N)cc(C(F)(F)F)c1 [Compound 91]	3 to 10	30 to 100	+ (<0.1 10^−6 cm/s)	
CCOC(=O)Cn1ccc(C)[n+]1CC(=O)Nc1c(C)cccc1C [Compound 85]	3 to 10	> 100	+ (<0.1 10^−6 cm/s)	
Cc1cccc(C)c1NC(=O)C[n+]1ccc(C(N)=O)c(C(F)(F)F)c1 [Compound 90]	3 to 10	> 100	+ (<0.1 10^−6 cm/s)	
CCCC(C(=O)Nc1c(C)cccc1C)[n+]1ccccc1 (stereo not drawn) [Compound 107]	3 to 10	> 100	+ (<0.1 10^−6 cm/s)	
Cc1cccc(C)c1NC(=O)C[n+]1c(C)ccn1C [Compound 93]	3 to 10	> 100	+ (<0.1 10^−6 cm/s)	
Cc1cccc(C)c1NC(=O)C[n+]1cccn1CCC(C)C [Compound 74]	3 to 10	> 100	+ (<0.1 10^−6 cm/s)	
Cc1cccc(C)c1NC(=O)C[n+]1ccc(C)n1C(C)C [Compound 82]	1 to 3	> 100	+ (<0.1 10^−6 cm/s)	
CCOC(=O)Cn1c(C)cc[n+]1CC(=O)Nc1c(C)cccc1C [Compound 86]	3 to 10	> 100	+ (<0.1 10^−6 cm/s)	
Cc1cccc(C)c1NC(=O)C[n+]1cccn1CCC#N [Compound 70]	10 to 30	> 100	+ (<0.1 10^−6 cm/s)	
Cc1cccc(C)c1NC(=O)C[n+]1c(C)ccn1C(C)C [Compound 102]	1 to 3	> 100	+ (<0.1 10^−6 cm/s)	
Cc1cccc(C)c1NC(=O)C[n+]1cccc(OCc2ccccc2)c1 [Compound 88]	3 to 10	> 100	+ (<0.1 10^−6 cm/s)	
Cc1cccc(C)c1NC(=O)C[n+]1cccn1C1CCC1 [Compound 72]	3 to 10	> 100	+ (<0.1 10^−6 cm/s)	
Cc1cccc(C)c1NC(=O)C[n+]1cccc(C(C)(C)C)c1 [Compound 32]	1 to 3	> 100		70 to 95

The next lines start with the values.

IC50 (NaV1.7 [1]) [µM]	IC50 (NaV1.7 [2]) [µM]	PAMPA (10^−6 cm/s) [3]	inhibition at 10 µM (NaV1.7 [4]) [%]	SMILES
1 to 3	> 100	+ (<0.1 10^−6 cm/s)		CCOC(=O)CCn1ccc[n+]1CC(=O)Nc1c(C)cccc1C [Compound 80]
< 1	> 100	+ (<0.1 10^−6 cm/s)		Cc1cccc(C)c1NC(=O)C[n+]1cccc(OC(C)C)c1 [Compound 87]
1 to 3	> 100	++ (0.1-2.0 10^−6 cm/s)		Cc1cccc(C)c1NC(=O)C[n+]1cccc(C(C)C)c1 [Compound 31]
1 to 3	> 100	+ (<0.1 10^−6 cm/s)		COc1cc(F)c[n+](CC(=O)Nc2c(C)cccc2C)c1 [Compound 78]
1 to 3	> 100	+ (<0.1 10^−6 cm/s)		Cc1cccc(C)c1NC(=O)C[n+]1cccn1C1CC1 [Compound 68]
1 to 3	> 100	+ (<0.1 10^−6 cm/s)		Cc1cccc(C)c1NC(=O)C[n+]1cccn1Cc1ccccc1 [Compound 92]
